# pIC50: −log10 of the molar value. Where two headings read alike, the source gives them in different places.
# Key:
# [1] = tested on: bloodstream-form trypanosome T. brucei brucei 427 strain; assay: Trypanosoma brucei brucei high-throughput in vitro drug sensitivity assay (resazurin); assay type: cell-based; settings: for Selectivity Index (L929 IC50 / T. b. brucei IC50): T. b. brucei vs L929; for pIC50 / IC50: Trypanosoma brucei; for pIC50: read-out: T. b. brucei IC50
# [2] = Kinetic solubility by nephelometric (light scattering) method; assay type: physicochemical; settings: phosphate buffered saline, aqueous buffer, kinetic from dmso stock, PBS pH 7.4
# Method: The kinetic solubilities of compounds were estimated using a nephelometric (light scattering) method. Briefly, compounds were serially diluted in DMSO, followed by dilution in PBS pH 7.4. After incubation, the amount of light scattered by a compound at each concentration was measured. […] At concentrations above the solubility limit, the compound precipitates and the precipitant in the well scatters the light, generating a signal. Higher levels of precipitant in a well scatter more light and produce a stronger signal.
# A stock solution of compound (25 mM in DMSO) was prepared, and was serially diluted in DMSO in two-fold increments in a row of a 96 well plate to a lowest concentration of 24 μM. A duplicate plate was prepared by transfer of half of the volume of each well to a new plate. Each well containing DMSO solution of the test compound was then diluted further (1:100) with phosphate buffered saline (pH 7.4) to provide aqueous solutions of compound at the following final concentrations: 250, 125, 62.5, 31.3, 15.6, 7.8, 3.9, 2.0, 1.0, 0.5 and 0.2 μM. All liquid handling stages were performed on a Beckman Coulter Biomek NX Laboratory Automation Workstation. Each compound was diluted and tested in duplicate, providing four separate wells at each test concentration.
# The test solutions of compound were incubated at room temperature for 90 minutes and then analyzed using a Thermoskan Ascent nephelometric plate reader. The nephelometer protocol included two steps: first, the plate was shaken for 60 seconds at 1200 rpm, then each well of the plate was read in succession with an 800 ms settling delay between measurements. The total measurement time for a single plate was less than 4 minutes.
# The four values (in nephelometric units) obtained for each compound at each concentration were averaged and plotted on a log scale versus concentration.
# [3] = L929 cytotoxicity evaluation (resazurin); assay type: cell-based; settings: mouse, L929 mouse fibroblast cells; 72 hrs incubation; read-out: Cytotox L-929 IC50
# Summary of the method: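 Mouse L929 fibroblasts (1×10^4/mL seeding, attached overnight) were treated 72 h at 37 °C, 5% CO2 with serially diluted compounds in DMSO in D-MEM/10% FBS. Viability read by resazurin fluorescence after 3–4 h (ex 544/em 590 nm); IC50 from sigmoidal fits of single data points.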
# [4] = tested on: Leishmania donovani strain 1S-CL2D axenic amastigotes; assay: Leishmania donovani axenic amastigote in vitro drug sensitivity assay (resazurin); assay type: cell-based; settings: for Selectivity Index (Ld/L929): L. donovani vs L929; for pIC50 / IC50: Leishmania donovani, 72 hrs incubation; for pIC50: read-out: L. donovani axenic amastigotes IC50; for IC50: read-out: L. donovani axenic amastigotes IC50 (ug/mL)
# Method: All experiments were conducted with the axenic amastigote-form of the following parasite: Leishmania donovani strain 1S-CL2D from Sudan, World Health Organization (WHO) designation: (MHOM/SD/62/1 S-CL2D). Parasites were cultured in T-25 vented cap flasks and kept in humidified incubators at 37° C. and 5% CO2. The axenic parasite culture media was RPMI-1640/MES/pH 5.5 formulated and prepared as described by Debrabant et. al. (International Journal for Parasitology 2004, Volume 34, page 205-217). To ensure log growth phase, axenic amastigotes were sub-cultured at appropriate dilutions every 2-3 days.
# Cultures of axenic amastigotes growing in the log phase were passed through a 22 gauge blunt needle to break up the clumps, diluted 1:10 in RPMI-1640/MES medium and counted using hemocytometer to determine parasite concentration. Amastigotes were diluted to 2×10^5/mL in RPMI-1640/MES medium to generate a 2-fold working concentration for assay. Compounds to be tested were serially diluted in DMSO and 0.5 μL added to 50 μL HMI-9 in triplicate 96-well plates using a Biomek NX liquid handler. Parasites from the diluted stock were added to each well (50 μL) using a Multidrop 384 dispenser to give a final concentration of 1.0×10^5/ml parasites in 0.5% for DMSO. Amastigotes were incubated with compounds for 72 hrs at 37° C. with 5% CO2. Resazurin (10 μL of 12.5 mg/ml stock) from Sigma-Aldrich was added to each well and plates were incubated for an additional 2-3 hrs. Assay plates were read using an EnVision plate reader at an excitation wavelength of 544 nm and emission of 590 nm. Triplicate data points were averaged to generate sigmoidal dose response curve and determine IC50 values using XLfit curve fitting software from IDBS (Guildford, UK).
# [5] = tested on: TREU 667 strain of T. b. brucei; assay: Chronic CNS Model; assay type: in vivo, T. b. brucei in mice; settings: treated on Day 21 (10 mg/kg)
# Method: Mice were infected with 10,000 parasites of the TREU 667 strain of T. b. brucei. Twenty one days post-infection mice were treated with a dose of between 6 and 100 mg/kg of the compound, either BID or QD for 7 days intraperitoneally (IP) or orally (PO). Positive control mice were treated with Diminazene (10 mg/kg, IP) on Day 4 post-infection. Negative control mice were treated with Diminazene (10 mg/kg, PO) on Day 21. Since Diminazene is not able to penetrate the CNS, mice treated at Day 21 are not able to cure the infection. Starting 1 week after the end of treatment, mice are monitored for parasitemia and sacrificed if parasites are detected in the blood. Mice that survive 6 months are considered “cured.”
# [6] = Pharmacokinetic studies in mice (plasma, brain); assay type: in vivo; settings: for CL/F / half-life / Cmax / AUC(0-inf) / AUC(0-t): male, CD-1, mouse, 8 mg/kg, oral; for CL/F / half-life: mice (Table 3a); for CL/F: read-out: Oral Clearance Cl/F (converted); for half-life: read-out: t½ (converted); for Cmax / AUC(0-inf) / AUC(0-t): mice, normalized to 25 mg/kg (Table 3a); for AUC(0-inf): read-out: Exposure/trapezoid AUC0-inf; for AUC(0-t): read-out: Exposure/trapezoid AUC0-last; for Fold improvement 69 vs E14: AUC0-inf / Fold improvement 69 vs E14: AUC0-last / Fold improvement 69 vs E14: Cmax / Fold improvement 69 vs E14: Oral Clearance Cl/F / Fold improvement 69 vs E14: t½: mouse, in vivo, po
# Method: Male CD-1 mice weighing approximately 25 g received the test article (E19 or 82 or E14 or 69) by either intravenous (IV), oral gavage (OG) or intra-peritoneal (IP) routes. Animals in IV group (6-10 animals, 1-2 per time point) received a single bolus injection of approximately 2 mg/kg of the test article. Animals receiving […], or as 4 repeat doses ([…], 1-2 per time point).
# All doses were administered as clear colorless solutions in either: 50% (v/v) PEG400:20% (v/v) ethanol:30% (v/v) carboxymethylcellulose (0.5% w/v in sterile water for injection, WFI), or as in situ sodium salts in 5% (m/v) dextrose:2% (v/v) ethanol in DWI. All dose solutions were delivered at 4 mL/kg. Animals were fasted for at least 4 hours before dosing, and for 2 hours after dosing.
# Blood samples and brain tissue were sampled from 1 or 2 animals/timepoint/group immediately before dosing and approximately 0.17, 0.5, 1, 2, 3, 4, 6, 8, 12, 18 and 24 hr after dosing for full pharmacokinetic and tissue analysis, or at 0.5, 2 and 4 hours post dosing to assess early-phase CNS disposition.
# Bioanalysis for test article in whole blood, plasma or brain tissue was performed by HPLC with tandem mass spectrometry (LC-MSMS). Whole blood and plasma samples were treated with 3 volumes of either acetonitrile or methanol to precipitate plasma proteins. Treated samples were centrifuged and supernatants removed for analysis. Brain tissues were weighed and homogenized mechanically in the presence of 1 volume of phosphate-buffered saline (PBS). The resulting tissue suspensions were then diluted with a further volume of PBS, and then treated in the same manner as whole blood or plasma.
# Extracted samples were assayed for test article by means of LC-MSMS employing reversed-phase chromatography coupled to a triple quadrupole mass spectrometer employing electrospray ionization in the positive ion mode. The analytical column was a Phenomenex Luna 3μ C8 50×2 mm, with an online sample purification step performed on a Phenomenex Synergi 4μ Polar RP 50×2 mm column.
# Test articles were eluted using a binary mobile phase gradient comprising 5 mM Ammonium Acetate: 0.1% formic acid in either MeOH or H2O.
# Non-compartmental analysis of plasma test article concentration versus time was performed in Microsoft Excel to generate pharmacokinetic parameters including: area under the curve (AUC), clearance (as Cl or Cl/F), volume of distribution (Vdss), half-life (t½), and bioavailability (F).
# [7] = 72 hrs incubation, read-out: T.b. brucei IC50
# [8] = 72 h, read-out: T.b. brucei IC50 (ug/mL)
compound,measurement,setting,value
"CC1OB(O)c2cc(NC(=O)c3ccccc3Cl)ccc21 (stereo not shown) [compound 4, 2-Chloro-N-(1-hydroxy-3-methyl-1,3-dihydro-benzo[c][1,2]oxaborol-6-yl)-benzamide]",Selectivity Index (L929 IC50 / T. b. brucei IC50),[1],52
same,pIC50,[1]; 72 hrs incubation,7.10
same,IC50,[1]; [7],0.024 µg/mL
same,solubility at 90 min,[2],> 200 µM
same,IC50 at 72 h,[3],1.24 µg/mL
same,Selectivity Index (Ld/L929),[4],9
same,pIC50,[4],6.34
same,IC50,[4],0.138 µg/mL
"CC1OB(O)c2cc(NC(=O)c3ccc(F)cc3)ccc21 (stereo not shown) [compound 3, 4-Fluoro-N-(1-hydroxy-3-methyl-1,3-dihydro-benzo[c][1,2]oxaborol-6-yl)-benzamide]",Selectivity Index (L929 IC50 / T. b. brucei IC50),[1],>200
same,pIC50,[1]; 72 hrs incubation,6.76
same,IC50,[1]; [7],0.05 µg/mL
same,solubility at 90 min,[2],100 µM
same,IC50 at 72 h,[3],> 10 µg/mL
same,Selectivity Index (Ld/L929),[4],>10
same,pIC50,[4],6.46
same,IC50,[4],0.098 µg/mL
"CC1OB(O)c2cc(NC(=O)c3ccccc3C(F)(F)F)ccc21 (stereo not shown) [compound 2, N-(1-Hydroxy-3-methyl-1,3-dihydro-benzo[c][1,2]oxaborol-6-yl)-2-trifluoromethyl-benzamide]",Selectivity Index (L929 IC50 / T. b. brucei IC50),[1],7
same,pIC50,[1]; 72 hrs incubation,6.63
same,IC50,[1]; [7],0.078 µg/mL
same,solubility at 90 min,[2],3 µM
same,IC50 at 72 h,[3],0.53 µg/mL
same,Selectivity Index (Ld/L929),[4],2
same,pIC50,[4],6.08
same,IC50,[4],0.278 µg/mL
"COc1ccc(C(=O)Nc2ccc3c(c2)B(O)OC3C)cc1 (stereo not shown) [compound 5, N-(1-Hydroxy-3-methyl-1,3-dihydro-benzo[c][1,2]oxaborol-6-yl)-4-methoxy-benzamide]",Selectivity Index (L929 IC50 / T. b. brucei IC50),[1],>185
same,pIC50,[1]; 72 hrs incubation,6.74
same,IC50,[1]; [7],0.054 µg/mL
same,solubility at 90 min,[2],100 µM
same,IC50 at 72 h,[3],> 10 µg/mL
same,Selectivity Index (Ld/L929),[4],>93
same,pIC50,[4],6.44
same,IC50,[4],0.107 µg/mL
"N=C(N)c1ccc(/N=N/Nc2ccc(C(=N)N)cc2)cc1 [Diminazene, diminazene, reference compound]",Day by which all animals relapsed to exhibit blood parasitemia,[5],≤ 49 days
"CC1(C)OB(O)c2cc(NC(=O)c3ccc(F)cc3Cl)ccc21 [compound 69, 2-Chloro-4-fluoro-N-(1-hydroxy-3,3-dimethyl-1,3-dihydro-benzo[c][1,2]oxaborol-6-yl)-benzamide]",Selectivity Index (L929 IC50 / T. b. brucei IC50),[1],>35
same,IC50,"[1]; 72 h, read-out: T. b. brucei IC50 (nM)",845 nM
same,IC50,[1]; [8],0.282 µg/mL
same,solubility at 90 min,[2],100 µM
same,IC50 at 72 h,[3],> 10 µg/mL
same,CL/F,[6]; brain,20 mL/min/kg
same,half-life,[6]; brain,84 min
same,Cmax,[6]; brain,3250 ng/mL
same,AUC(0-inf),[6]; brain,21300 ng·h/mL
same,AUC(0-t),[6]; brain,20800 ng·h/mL
same,CL/F,[6]; plasma,7.32 mL/min/kg
same,half-life,[6]; plasma,222 min
same,Cmax,[6]; plasma,7670 ng/mL
same,AUC(0-inf),[6]; plasma,58000 ng·h/mL
same,AUC(0-t),[6]; plasma,56900 ng·h/mL
same,Fold improvement 69 vs E14: AUC0-inf,[6]; in brain,6.8 fold
same,Fold improvement 69 vs E14: AUC0-last,[6]; in brain,6.7 fold
same,Fold improvement 69 vs E14: Cmax,[6]; in brain,1.3 fold
same,Fold improvement 69 vs E14: Oral Clearance Cl/F,[6]; in brain,6.7 fold
same,Fold improvement 69 vs E14: t½,[6]; in brain,0.9 fold
same,Fold improvement 69 vs E14: AUC0-inf,[6]; in plasma,3.8 fold
same,Fold improvement 69 vs E14: AUC0-last,[6]; in plasma,4.0 fold
same,Fold improvement 69 vs E14: Cmax,[6]; in plasma,2.1 fold
same,Fold improvement 69 vs E14: Oral Clearance Cl/F,[6]; in plasma,3.9 fold
same,Fold improvement 69 vs E14: t½,[6]; in plasma,1.2 fold
"CC(C)c1ccc(C(=O)Nc2ccc3c(c2)B(O)OC3(C)C)c(Cl)c1 [compound 101, 2-Chloro-N-(1-hydroxy-3,3-dimethyl-1,3-dihydro-benzo[c][1,2]oxaborol-6-yl)-4-isopropyl-benzamide]",IC50,[1]; [8],0.05 µg/mL
same,solubility at 90 min,[2],25 µM
same,IC50 at 72 h,[3],8.43 µg/mL
O=C(Nc1ccc2c(c1)B(O)OC21CCCC1)c1ccc(F)cc1C(F)(F)F [compound 136],pIC50,[1]; 72 hrs incubation,< 4.90
same,IC50,[1]; [7],> 5 µg/mL
same,solubility at 90 min,[2],25 µM
same,IC50 at 72 h,[3],> 10 µg/mL
CC1OB(O)c2cc(NC(=O)c3ccc(F)cc3C(F)(F)F)ccc21 (stereo not shown) [compound 1],Selectivity Index (L929 IC50 / T. b. brucei IC50),[1],13
same,pIC50,[1]; 72 hrs incubation,6.59
same,IC50,[1]; [7],0.091 µg/mL
same,solubility at 90 min,[2],50 µM
same,IC50 at 72 h,[3],1.21 µg/mL
same,Selectivity Index (Ld/L929),[4],7
same,pIC50,[4],6.28
same,IC50,[4],0.185 µg/mL

# — patent US20110190235A1, “BORON-CONTAINING SMALL MOLECULES AS ANTIPROTOZOAL AGENTS” (Anacor Pharmaceuticals, Inc., priority 2009, published 2011)
